Results: patent US20060265776A1, “Viability” (priority 2003, published 2006)
Entries after “also recorded” stand apart in the source; their conditions may differ.

Key:
Arabidopsis plants [1] = assay: Foliar spray application, herbicidal activity; type: in vivo; details: 2 mL spray, 5 mM active ingredient, 0.02% (v/v) Tween 20, pH 6.7
Procedure: The inventors tested a range of compounds for their potential herbicidal activity. These consisted of several nonhydrolysable ATP analogues as well as nonhydrolysable analogues of GTP, another nucleotide triphosphate. Arabidopsis plants were grown hydroponically for 2 weeks as described in Example 6B. These plants, still attached to the polyurethane foam discs, were then transferred to phytatrays that contained sand. Plants grown under high humidity conditions, achieved in these enclosed phytatrays, tend to have poor or no development of the waxy cuticle and so are ideal for spray application of solutions with the aid of common surfactants like Tween 20. The plants in each tray were sprayed with 2 mL of an aqueous solution adjusted to pH 6.7 with KOH and containing 5 mM active ingredient and 0.02% (v/v) Tween 20. Control plants were sprayed with the same solution containing only Tween 20 but no active ingredient.

[2] = test system: Arabidopsis thaliana cell suspension cultures; type: cell-based; details: for cell viability / cell death, in words: ADP 1 mM, AMP 1 mM, ATP 1 mM, glucose-6-phosphate 100 mM, boiled apyrase 50 units/ml, boiled hexokinase 200 units/ml with 100 mM glucose
Procedure: A. thaliana cell cultures were grown as described in example 1. Aliquots of the cell suspension (1.5 mL) were treated with a final concentration of 0, 20, 50, or 100 units/mL of apyrase. […] The dead cells had become buoyant and adhered to the walls of the vials, forming a ring just above the edge of the swirling medium. The ring of cells was sometimes dislodged and fell into the medium, resulting in apyrase-treated cultures having flakes of dead cells at the bottom of the vials.
To quantify the effect of apyrase on cell viability, the ability of the cells to grow and multiply subsequent to treatment was measured after diluting the cultures by over 30 times in fresh medium not containing any additives. This was achieved by transferring the cells treated for 3 days to 50 mL of fresh growth medium and allowing them to grow for a further 4 days. At the end of this period, triplicate 1 mL aliquots were sampled from the cultures and the volume of the cells was measured and expressed as a percentage of the culture volume. The method used to determine the packed cell volume was as follows: 1 mL cell culture aliquots were placed in 1.5 mL microfuge tubes and the cells gently compacted by centrifuging (1000 rpm., 10 minutes) in a swing-out rotor (Grundrotor 11030; Sigma laborzentrifugen GmbH, Oestrode, Germany). The level of the cells was marked on the wall of the tube and the volume of cells determined by measuring the volume of water needed to fill the tube to the marked level. The packed cell volume was expressed as the volume occupied by cells as a percentage of 1000 μL.
In each case the error bars represent the standard deviation.

[3] = test system: Black Mexican sweet corn cells; assay: Cell viability of corn suspension cells; type: cell-based, Zea mays; details: 1 mM ATP, 1 mM AMP-PCP, 100 units/mL apyrase, 200 units/mL hexokinase; 100 mM glucose in culture
[4] = test system: Tobacco (Nicotiana tabacum), Arabidopsis, and bean (Phaseolus vulgaris) plants; assay: Leaf infiltration of extracellular ATP depletion systems, whole plants; type: in vivo; details: 0.5 units/μL apyrase, 1.85 units/μL hexokinase plus 100 mM glucose, 1-5 mM AMP-PCP (pH 6.5); ATP (pH 6.5)
Procedure: (§1) Tobacco (Nicotiana tabacum), Arabidopsis, and bean (Phaseolus vulgaris) plants were sown in soil and raised in a growth cabinet with a 16-hour photoperiod at 20° C. and 8 hours of darkness at 15° C. The relative humidity was maintained at 60% and the photon flux density was 250 μmolm^−2 s^−1. […] Only the cotyledons of bean plants were treated. The abaxial surface of a small zone of leaf tissue was treated by infiltrating the apoplast with the solution using a syringe and hypodermic needle. The three test solutions had the following concentrations of either: 0.5 units/μL apyrase, 1.85 units/μL hexokinase plus 100 mM glucose, or 1-5 mM AMP-PCP (pH 6.5).
The concentrations used were the same as defined above unless stated otherwise.

tobacco leaves = assay: Leaf infiltration, tobacco; type: in vivo, Nicotiana tabacum; details: for local tissue death after infiltration of tobacco leaves: 1 mM AMP-PCP, 1 mM ATP, apyrase, hexokinase plus glucose; for state of tobacco plant after treatment of a leaf: 5 mM AMP-PCP or equivalent amount of ATP, after 4 days
Procedure: as §1

[5] = test system: Arabidopsis cell suspension cultures; assay: 2-D DIGE protein spot abundance, AMP-PCP treatment; type: cell-based; details: 50 μM AMP-PCP vs water, 72 hours
tobacco plants = assay: Foliar spray on soil-grown tobacco plants; details: 5 mM in 0.02% Tween 20, 2 mL spray, three days after treatment
Arabidopsis plants [6] = details: cited from earlier work
[7] = test system: Arabidopsis cell cultures; assay: MTT assay of cell viability after elicitor or bacteria with or without ATP; type: cell-based; details: 1 mM ATP, 24 hours
[8] = test system: Arabidopsis cell cultures; assay: H2O2 accumulation after elicitor treatment; type: cell-based; details: exogenous ATP with elicitor

Nc1ncnc2c1ncn2[C@@H]1O[C@H](COP(=O)(O)OP(=O)(O)OP(O)(O)=S)[C@@H](O)[C@H]1O [ATP-γ-S, adenosine 5′-(γ-thio)triphosphate]
Effects on Arabidopsis plants after foliar application (Arabidopsis plants [1]): had herbicidal activity; also recorded: Phytotoxic

Nc1nc2c(ncn2[C@@H]2O[C@H](COP(=O)(O)OP(=O)(O)OP(=O)(O)O)[C@@H](O)[C@H]2O)c(=O)[nH]1 [GTP, guanosine 5′-triphosphate]
Effects on Arabidopsis plants after foliar application (Arabidopsis plants [1]): does not and None

Nc1ncnc2c1ncn2[C@@H]1O[C@H](COP(=O)(O)OP(=O)(O)O)[C@@H](O)[C@H]1O [ADP, adenosine 5′-diphosphate]
Effects on Arabidopsis plants after foliar application (Arabidopsis plants [1]): not phytotoxic and None

O=C[C@H](O)[C@@H](O)[C@H](O)[C@H](O)COP(=O)(O)O [glucose-6-phosphate]
cell viability / cell death, in words [2]: did not affect cell viability

Nc1ncnc2c1ncn2[C@@H]1O[C@H](COP(=O)(O)O)[C@@H](O)[C@H]1O [AMP]
cell viability / cell death, in words [2]: did not result in any change in cell viability

Nc1ncnc2c1ncn2C1OC(COP(=O)(O)OP(=O)(O)CP(=O)(O)O)C(O)C1O (stereo not drawn) [AMP-PCP, β,γ-methyleneadenosine 5′-triphosphate]
cell viability with increasing concentration (dose-response), in words ([2]; apyrase 0-100 units/mL, hexokinase 0-200 units/mL with 100 mM glucose, AMP-PCP 0-1.5 mM): loss in cell viability | viability of corn cells [3]: caused significant cell death | necrotic lesions after local leaf infiltration [4]: development of necrotic lesions in the area where the application was made within 2 days of treatment; also recorded: localised necrotic lesions | local tissue death after infiltration of tobacco leaves (tobacco leaves): caused localised tissue death | state of tobacco plant after treatment of a leaf (tobacco leaves): not only had the treated leaf died (white arrowhead), but so too had portions of some upper, untreated leaves | Ratio, spot 613 H84453 Probable heat shock protein [imported] [5]: −1.26 | Ratio, spot 690 gi30693102 NADH dehydrogenase (ubiquinone), mitochondrial [5]: −1.44 | Ratio, spot 703 Luminal binding protein 1 precursor (BiP-1) [5]: 1.29 | Ratio, spot 707 Luminal binding protein 1 precursor (BiP-1) [5]: 1.45 | Ratio, spot 740 Heat shock cognate 70 kDa protein 2 (hsc70-2) [5]: −1.22 | Ratio, spot 778 gi1072473 dnaK-type molecular chaperone hsc70.1 [5]: 1.15 | Ratio, spot 795 gi15232682 Heat shock protein hsc70-3 [5]: 1.2 | Ratio, spot 906 gi15219234 ATPase 70 kDa subunit-related protein [5]: 1.19 | Ratio, spot 1063 gi30687521 Putative protein disulfide isomerase [5]: 1.24 | Ratio, spot 1069 gi15232827 Threonine ammonia lyase [5]: −1.23 | Ratio, spot 1074 gi11094242 Cytosolic phosphoglucose isomerase [5]: 1.2 | Ratio, spot 1098 gi288063 Ketol-acid reductoisomerase [5]: −1.12 | Ratio, spot 1135 gi9082270 Alanine aminotransferase [5]: 1.2 | Ratio, spot 1148 gi21593375 Unknown protein [5]: 1.24 | Ratio, spot 1155 gi30684419 Dihydrolipoamide dehydrogenase 2, mitochondrial [5]: 1.34 | Ratio, spot 1187 gi21954071 Putative alanine aminotransferase [5]: 1.41 | Ratio, spot 1196 gi14916970 ATP synthase alpha chain, mitochondrial [5]: 1.31 | Ratio, spot 1200 gi15241168 Tubulin alpha-3/alpha-5 chain (TUA3) [5]: 1.35 | Ratio, spot 1205 gi2493132 Vacuolar ATP synthase subunit B isoform 2 [5]: 1.24 | Ratio, spot 1229 H+-transporting ATP synthase beta chain [5]: 1.4 | Ratio, spot 1241 Enolase (2-phospho-D-glycerate hydrolase) [5]: 1.39 | Ratio, spot 1245 H+-transporting ATP synthase beta chain [5]: 1.23 | Ratio, spot 1254 gi15227559 Tubulin beta-7 chain [5]: −1.2 | Ratio, spot 1257 Enolase (2-phospho-D-glycerate hydrolase) [5]: 1.51 | Ratio, spot 1264 Enolase (2-phospho-D-glycerate hydrolase) [5]: 1.32 | Ratio, spot 1281 gi15234516 Putative thioredoxin [5]: 1.23 | Ratio, spot 1282 Adenosylhomocysteinase [5]: 1.46 | Ratio, spot 1292 Adenosylhomocysteinase [5]: 1.29 | Ratio, spot 1439 gi14594802 Translation initiation factor elf-4A1 [5]: 1.84 | Ratio, spot 1460 gi7485313 Hypothetical protein F10M10.120 [5]: −1.1 | Ratio, spot 1481 gi15234354 S-adenosylmethionine synthetase 2 [5]: −1.3 | Ratio, spot 1497 gi21536853 Putative phosphoglycerate kinase [5]: 1.47 | Ratio, spot 1516 Putative S-adenosylmethionine synthetase [5]: 1.22 | Ratio, spot 1649 gi21593388 12-oxophytodienoate reductase (OPR1) [5]: −1.22 | Ratio, spot 1718 gi15229530 Glutamine synthetase-related protein [5]: −1.13 | Ratio, spot 1748 gi21593240 GAPDH C subunit (GapC) [5]: 1.21 | Ratio, spot 1817 gi3435286 GAPDH C subunit (GapC) [5]: 1.13 | Ratio, spot 1868 gi15226185 Putative fructose-bisphosphate aldolase [5]: −1.35 | Ratio, spot 1892 gi14334740 Putative fructose-bisphosphate aldolase [5]: −1.71 | Ratio, spot 1920 gi15237888 Putative NADP-dependent oxidoreductase (P1) [5]: −1.45 | Ratio, spot 1943 gi25283601 Malate dehydrogenase [EC 1.1.1.37], chloroplast [5]: 1.22 | Ratio, spot 1959 Malate dehydrogenase [NAD], mitochondrial [5]: −1.11 | Ratio, spot 1964 gi15232468 Malate dehydrogenase [NAD], mitochondrial [5]: 1.21 | Ratio, spot 2221 gi21593226 Putative esterase D [5]: −1.24 | Ratio, spot 2282 gi15228883 Expressed protein [5]: −1.74 | Ratio, spot 2370 gi18390982 ATP-dependent Clp protease proteolytic subunit [5]: 1.38 | Ratio, spot 2422 gi20260140 Multicatalytic endopeptidase complex alpha subunit [5]: −1.21 | Ratio, spot 2443 L-ascorbate peroxidase 1, cytosolic (APX1) [5]: −2.51 | Ratio, spot 2552 L-ascorbate peroxidase 1, cytosolic (APX1) [5]: −1.47 | Ratio, spot 2562 gi15224582 Putative glutathione S-transferase [5]: 1.4 | Ratio, spot 2605 gi15239652 Putative quinone reductase [5]: 1.38 | Ratio, spot 2626 gi15228805 20S proteasome beta subunit D (PBD1) [5]: 1.14 | Ratio, spot 2690 gi20138157 Phospholipid hydroperoxide glutathione peroxidase [5]: 1.21 | Ratio, spot 2734 gi18412406 Expressed protein [5]: −1.93 | Ratio, spot 2832 gi30697295 Actin depolymerizing factor 3-like prptein [5]: −1.29 | Ratio, spot 2842 gi15218373 40S ribosomal protein S12 (RPS12A) [5]: −1.3 | state of tobacco plants (tobacco plants): started to die

Nc1nc2c(ncn2[C@@H]2O[C@H](COP(=O)(O)OP(=O)(O)OP(O)(O)=S)[C@@H](O)[C@H]2O)c(=O)[nH]1 [GTP-γ-S, guanosine 5′-(γ-thio)triphosphate]
Effects on Arabidopsis plants after foliar application (Arabidopsis plants [1]): has herbicidal properties; also recorded: Phytotoxic

Nc1ncnc2c1ncn2[C@@H]1O[C@H](COP(=O)(O)CP(=O)(O)O)[C@@H](O)[C@H]1O [α,β-methyladenosine 5′ diphosphate]
cycloheximide-resistance of plants over-expressing ecto-ATPase (Arabidopsis plants [6]; co-administered with cycloheximide): lost their cycloheximide-resistance

Nc1ncnc2c1ncn2[C@@H]1O[C@H](COP(=O)(O)OP(=O)(O)NP(=O)(O)O)[C@@H](O)[C@H]1O [AMP-PNP, adenosine 5′-(β,γ-imido)triphosphate]
Effects on Arabidopsis plants after foliar application (Arabidopsis plants [1]): had herbicidal activity; also recorded: Phytotoxic

[Na+].[Na+].[Na+].[O-]P([O-])([O-])=S [NaPO3S, sodium thiophosphate]
Effects on Arabidopsis plants after foliar application (Arabidopsis plants [1]): did not cause death and None

Nc1ncnc2c1ncn2[C@@H]1O[C@H](COP(=O)(O)OP(=O)(O)OP(=O)(O)O)[C@@H](O)[C@H]1O [ATP]
cell viability / cell death, in words [2]: did not cause death of treated cells | viability of corn cells [3]: did not affect the viability of the cells | necrotic lesions after local leaf infiltration [4]: did not result in cell death | local tissue death after infiltration of tobacco leaves (tobacco leaves): did not | state of tobacco plant after treatment of a leaf (tobacco leaves): remained entirely healthy | effect of exogenous ATP on reduction in cell viability caused by Ps. syringae or Fusarium elicitor [7]: substantially negated | H2O2 accumulation [8]: failed to prevent H2O2 accumulation | Effects on Arabidopsis plants after foliar application (Arabidopsis plants [1]): remained healthy and None | resistance of plants to xenobiotics (Arabidopsis plants [6]; adding exogenous ATP): decreased the resistance of plants to xenobiotics | state of tobacco plants (tobacco plants): unaffected
